Source: PMC7170901, “Design and efficient synthesis of pyrazoline and isoxazole bridged indole C-glycoside hybrids as potential anticancer agents” (Scientific Reports, 2020)

Legend:
Assay type in all cases: cell-based
[1] = test system: MDA-MB-231 (human breast cancer) cell line; test: MTT cell viability assay in MDA-MB-231 cells; conditions: Homo sapiens; for viability at 10 µM / viability at 25 µM / viability at 50 µM: MDA-MB-231, 72 h, 72 h, MTT, read-out: Cell Viability (%) ± SD; for viability at 10 µM: MDA-MB-231, 10 µM; for viability at 25 µM: MDA-MB-231, 25 µM; for viability at 50 µM: MDA-MB-231, 50 µM; for IC50: MDA-MB-231, MTT, treated for 48 h, 1, 5, 10, 25 and 50 µM
Experimental: IC50 values were determined by plotting values of percent cell viability against concentration of each of these compounds. […] The experiments were performed in triplicates, n = 3 and ± SE value was calculated for each data point.
The human breast cancer cell line MDA-MB-231 were cultured in Dulbecco’s Modified Eagle’s Medium (DMEM) (Gibco, St. Louis, USA) supplemented with 10% heat inactivated FBS (Fetal Bovine Serum, Gibco, USA) and 1% penicillin-streptomycin (Gibco Canada) in humidified CO2 incubator at 37 °C. The cells were maintained as a monolayer in 100 mm culture plate. The cells used for each experiment were of less than 8 passage number. Sub culturing of cells was performed every third day, followed by trypsin EDTA treatment.
Cell viability assay was performed as per standard protocols. […] Ltd, India). In brief, this is a homogeneous, colorimetric method for determining the number of viable cells in proliferation, cytotoxicity or chemosensitivity assays. MTT is bio reduced by cells into a formazan product that is soluble in the tissue culture medium. […] The absorbance of the formazan product at 595 nm was measured directly from 96-well assay plates without additional processing using a multimode plate reader (Bio-Rad) (iMark, India), as absorbance is directly proportional to the number of viable cells in culture. The percentage of viable cells in each group is determined with respect to the untreated control cells.

[2] = test system: MCF-7 breast cancer cells; test: MTT cell viability assay in MCF-7 cells; conditions: Homo sapiens, MCF7; for viability at 1 µM: MCF-7, 1 µM; for viability at 1 µM / viability at 10 µM / viability at 25 µM: read-out: Cell Viability (%) ± SD; for viability at 10 µM: MCF-7, 10 µM; for viability at 25 µM: MCF-7, 25 µM; for IC50: MCF-7, MTT, five concentrations (1.0, 5.0, 10.0, 25 and 50 µM)
MCF-7 cells = test: LDH cytotoxicity assay; conditions: MCF-7, 25 µM; for cytotoxicity at 25 µM: Homo sapiens, MCF7, 48 h, read-out: % Cytotoxicity (LDH release relative to maximum LDH control); for % Cytotoxicity (LDH release relative to maximum LDH control): 48 h, 25 µM
Source text: When living cells treated with a cytotoxic compound, they could either stop growing and dividing, or die through either of two distinct processes i.e. necrosis or apoptosis. Basically, cells undergoing necrosis (accidental cell death) swell and lose membrane integrity before shutting down and releasing their intracellular contents into the surrounding environment. This type of cell death is usually triggered by external factors such as toxic chemical or traumatic physical events. When the cell membranes are damaged or compromised in any way, lactate dehydrogenase (LDH), a soluble yet stable enzyme found inside every living cell, gets released into the surrounding extracellular space. The presence of this enzyme in the culture medium can be used as a cell death marker. The relative amounts of live and dead cells within the medium can then be quantitated by measuring the amount of released LDH using a colorimetric or fluorometric LDH cytotoxicity assay.
Cytotoxicity was assessed with an LDH-cytotoxicity detection kit (Hi media, CCK036), Assays was performed according to assay protocol. Compound was taken at 25 μM concentration. The % of Cytotoxicity was calculated by this formula.
% Cytotoxicity = 100 × A − C/B − C, Where, A = Average absorbance of test. Average absorbance of background control (or vehicle control if applicable), B = Average absorbance of maximum LDH control − Average absorbance of volume correction control C = Average absorbance of untreated control − Average absorbance of background control.
Lactate Dehydrogenase Cell Assay Materials & Methods: (Himedia, product code; […]
Lactate dehydrogenase (LDH) is a cytoplasmic enzyme present in all mammalian cells. Plasma membrane of live cells is impermeable to LDH. However it is rapidly released into the culture medium when plasma membrane is damaged. The quantity of the leaked LDH is used as a measure of cell cytotoxicity. Due to low molecular weight (35kDa) LDH is easily released from the cells even with very minor damage or perturbations in the membrane. This makes the LDH release assay very sensitive.
This Kit has been designed for rapid determination of cell cytotoxicity using an enzyme coupled […]
Lactate Dehydrogenase (LDH) is based on an enzyme coupled reaction in which the LDH released from cells with damaged membrane reduces the tetrazolium dye to a colored formazan product. The reaction takes place in two steps - Step 1:
LDH catalyzes the conversion of lactate to pyruvate via reduction of NAD+ to NADH.
NADH thus generated reduces the tetrazolium dye to a colored formazan product which can be measured spectrophotometrically.
• Kit contents: CCK036(A) LDH reagent 5 x 5ml -20 °C in dark CCK036(B) Lysis solution 5ml -20 °C in dark
CCK036(C) Stop solution 25ml -20 °C in dark
• Cells in appropriate medium
• Adjustable pipettes and a repeat pipettor
• 96-well plate for culturing the cells
• 96-well plate reader capable of measuring the Absorbance at 450nm and more than […]
It is necessary to include different types of controls depending on application of LDH assay.
1. Maximum LDH control: It is recommended to perform maximum LDH estimation to determine total amount of LDH present in the cells.
2. Background control: Significant amount of LDH is present in the serum used for supplementing the culture medium. This contributes to the background absorbance / […]
without cells. Absorbance/fluorescence of background control wells should be subtracted from absorbance / fluorescence values of experimental wells to get corrected
3. Untreated control: Untreated control, also known as vehicle control should be included in the assay to obtain LDH values generated due to the solvent in which test compound is […]
(1 picture or pasted object on this page, not shown here) […]
dissolved. Untreated control wells contain the solvent at a concentration used for dissolving […]
• Preparation of cells: Freshly harvested MCF-7 cells for assay. Seeded in the 96well […]

Compound | IC50 [1] | IC50 [2] | viability at 10 µM [1] | viability at 25 µM [1] | viability at 50 µM [1] | viability at 1 µM [2] | viability at 10 µM [2] | viability at 25 µM [2] | cytotoxicity at 25 µM (MCF-7 cells) | % Cytotoxicity (LDH release relative to maximum LDH control) (MCF-7 cells)
O=C(/C=C/c1c[nH]c2ccccc12)C[C@@H]1O[C@H](CO)[C@@H](O)[C@H](O)[C@H]1O [Compound 9, (E)-4-(1H-indol-3-yl)-1-((2S,3R,4R,5S,6R)-3,4,5-trihydroxy-6-(hydroxymethyl)tetrahydro-2H-pyran-2-yl)but-3-en-2-one] | 30.6 µM | 30 µM | 71.1 ± 10.5% | 54 ± 11.2% | 36.3 ± 4.29% | 79.7 ± 1.18% | 62.3 ± 3.6% | 53.7 ± 4% | 12.9% | 13%
O=C(/C=C/c1c[nH]c2ccc(Cl)cc12)C[C@@H]1O[C@H](CO)[C@@H](O)[C@H](O)[C@@H]1O [Compound 20, (E)-4-(5-chloro-1H-indol-3-yl)-1-((2S,3S,4R,5S,6R)-3,4,5-trihydroxy-6-(hydroxymethyl)tetrahydro-2H-pyran-2-yl)but-3-en-2-one] |  | 21 µM | 56.7 ± 23.2% | 54.3 ± 16.3% | 62 ± 4.91% | 79.2 ± 2.6% | 58.7 ± 2.4% | 47.3 ± 7.6% | 7.78% | 8%
OC[C@H]1O[C@@H](Cc2cc(-c3c[nH]c4ccccc34)on2)[C@H](O)[C@@H](O)[C@H]1O [Compound 37, (2 S,3 R,4 R,5 R,6 R)-2-((5-(1H-indol-3-yl)isoxazol-3-yl)methyl)-6-(hydroxymethyl) tetrahydro-2H-pyran-3,4,5-triol] |  |  | 74.8 ± 10.7% | 76.4 ± 10.4% | 64.4 ± 7.77% | 30.8 ± 4.2% | 21.2 ± 3.8% | 19.1 ± 3.5% | 36.4% | 

The next lines start with results.

IC50 [1] | IC50 [2] | Compound | viability at 10 µM [1] | viability at 25 µM [1] | viability at 50 µM [1] | viability at 1 µM [2] | viability at 10 µM [2] | viability at 25 µM [2] | cytotoxicity at 25 µM (MCF-7 cells) | % Cytotoxicity (LDH release relative to maximum LDH control) (MCF-7 cells)
35.5 µM | 4.67 µM | OC[C@H]1O[C@@H](CC2=NNC(c3c[nH]c4ccccc34)C2)[C@H](O)[C@@H](O)[C@H]1O (stereo partly shown) [Compound 25, (2 S,3 R,4 R,5 R,6 R)-2-((5-(1H-indol-3-yl)-4,5-dihydro-1H-pyrazol-3-yl)methyl)-6-(hydroxy-methyl)tetrahydro-2H-pyran-3,4,5-triol] | 97.6 ± 3.36% | 54.2 ± 7.06% | 43.8 ± 13% | 66 ± 4.7% | 34 ± 2.5% | 19.9 ± 2.9% | 21.8% | 22%
22.3 µM | 0.71 µM | O=[N+]([O-])c1ccc2[nH]cc(-c3cc(C[C@@H]4O[C@H](CO)[C@@H](O)[C@H](O)[C@H]4O)no3)c2c1 [Compound 34, (2 R,3 S,4 R,5 R,6 S)-2-(hydroxymethyl)-6-((5-(5-nitro-1H-indol-3-yl)isoxazol-3-yl)methyl) tetrahydro-2H-pyran-3,4,5-triol] | 68.4 ± 5.36% | 46.1 ± 3.32% | 43.4 ± 0.26% | 41.3 ± 3.1% | 28.4 ± 0.9% | 23.1 ± 4.4% | 31.2% | 31%
